Measurements as given in patent US6861430B2, “β-carboline derivatives and its pharmaceutical use against depression and anxiety” (Novartis AG, priority 2001, dated 2005).

Columns and labels:
[1] = target: somatostatin sst3 receptors (Homo sapiens, UniProt P32745); experiment: radioligand binding, somatostatin receptor expressing cell cultures; settings: sst3 versus other somatostatin receptors
Excerpt: (§1) In particular the agents of the invention show high affinity to somatostatin receptors. More particularly they are selective antagonists at somatostatin sst3 receptors, previously called SSTR-3 receptors (see Hoyer et al., TiPS, 1995, 16; 86-88), as determined in radioligand binding and second messenger studies [see for example K. Kaupmann et al., FEBS Letts. 1993, 331:53-59.

human sst3 receptor = human sst3 receptor (Homo sapiens, UniProt P32745); experiment: radioligand binding, human sst3 receptor; settings: read-out: pKd, human receptor (converted)
Chain of human sst3 receptor (P32745 whole entry): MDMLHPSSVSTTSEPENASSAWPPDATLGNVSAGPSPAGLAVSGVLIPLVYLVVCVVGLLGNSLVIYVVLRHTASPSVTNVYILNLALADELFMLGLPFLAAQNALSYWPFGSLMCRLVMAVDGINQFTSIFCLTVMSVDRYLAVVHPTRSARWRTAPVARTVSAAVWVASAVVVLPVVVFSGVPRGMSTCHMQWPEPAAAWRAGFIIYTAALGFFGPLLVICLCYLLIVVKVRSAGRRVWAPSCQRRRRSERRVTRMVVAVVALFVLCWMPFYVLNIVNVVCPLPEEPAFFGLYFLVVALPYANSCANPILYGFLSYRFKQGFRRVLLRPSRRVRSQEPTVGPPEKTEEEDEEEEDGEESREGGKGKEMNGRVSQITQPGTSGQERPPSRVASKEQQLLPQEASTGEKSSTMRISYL
Excerpt: as §1
(§2) The preferred agent of the invention for the above-mentioned indications is the (R)-1,1-bis-ethoxymethyl-3-(4-phenyl-1H-imidazol-2-yl)-2,3,4,9-tetrahydro-1H-β-carboline, in free base or acid addition salt form. […] In the forced swim test (Porsolt), the immobility time is shortened by 30-45% on subchronic administration of 12.5-25 mg/kg p.o.

mouse sst3 receptor = mouse sst3 receptor (Mus musculus, UniProt P30935); experiment: radioligand binding, mouse sst3 receptor; settings: read-out: pKd, mouse receptor (converted)
Chain of mouse sst3 receptor (P30935 whole entry): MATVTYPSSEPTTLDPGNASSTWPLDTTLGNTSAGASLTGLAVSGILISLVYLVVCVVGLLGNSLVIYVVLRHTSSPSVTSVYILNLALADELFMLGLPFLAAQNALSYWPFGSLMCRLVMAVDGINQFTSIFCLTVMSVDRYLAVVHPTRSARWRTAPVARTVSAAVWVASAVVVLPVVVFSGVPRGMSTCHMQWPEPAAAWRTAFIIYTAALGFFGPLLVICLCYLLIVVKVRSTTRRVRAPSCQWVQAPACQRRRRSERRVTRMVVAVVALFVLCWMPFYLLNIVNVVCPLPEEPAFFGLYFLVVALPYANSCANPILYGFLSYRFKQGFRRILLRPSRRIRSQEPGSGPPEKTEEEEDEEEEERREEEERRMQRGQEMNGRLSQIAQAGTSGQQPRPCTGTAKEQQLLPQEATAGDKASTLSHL
Excerpt: as §1, §2

rats = experiment: social exploration test / social contact assay; assay type: in vivo; settings: rat
Protocol: In the social exploration test at doses of about 0.01 to 10 mg/kg p.o., the agents of the invention increase social contact time of rats similarly to classical anxiolytics such as benzodiazepines e.g. chlordiazepoxide or NK1 antagonists (Vassout A, Veenstra S, Hauser K, Ofner S, Brugger F, Schilling W, Gentsch C, Regulatory Peptides. 2000; 96, 7-16).
as §2

passive avoidance test = assay type: in vivo; settings: 0.1, 1 or 10 mg/kg p.o.
mice = experiment: social recognition test; assay type: in vivo; settings: doses between 0.03 and 3 mg/kg p.o.
Protocol: The agents of the invention at 0.03-3 mg/kg p.o. enhance leaming/mlmory in mice as measured in the social recognition test similar to oxiracetam or GABAB blockers (Thor D. H. and Holloway W. R. J. Comp. Physiol. Psychol. 1982; 96: 1000-1006. Mondadori C. et al., Behavioural Brain Research 1996, 77: 227-229).
as §2

rat = experiment: forced swim test (Porsolt), rat; assay type: in vivo; settings: subchronic administration of 12.5-25 mg/kg p.o.
Protocol: The agents of the invention show antidepressant-like effects in the rat, similar to desipramine or fluoxetine when given subchronically (10-30 mg/kg, p.o.) in the forced swim test. (Porsolt, R. D. et al. Nature. 1977: 266, 730-732) and also produce antidepressant-like effects in the mouse, similar to fluoxetine (Porsolt, R. D. et al. Nature 1977: 266, 730-732). Finally, these agents, when given once per day for 14 days, (0.3-30 mg/kg p.o.), reverse both the characteristic hyper-reactivity of bulbectomised rats when first placed in a novel and stressful environment and the total activity, similar to imipramine and desipramine. (Song C and Leonard BE. Hum. Psychopharmacol 1994; 9: 135-146).
as §2

Chain of somatostatin sst3 receptors (P32745 whole entry): as the sequence (P32745 whole entry) above

Structure (SMILES) | melting point | selectivity over other somatostatin receptors [1] | Kd (human sst3 receptor) | Kd (mouse sst3 receptor) | dose of maximal amplitude, social contact assay (rats) | duration of social contacts of the intruder towards the resident (rats; 0.01-10 mg/kg p.o.) | impairment of memory formation in passive avoidance test (passive avoidance test) | social recognition of a familiar partner (mice) | shortening of immobility time (rat)
CCCCC1(CCCC)N[C@@H](c2nc(-c3ccncc3)c[nH]2)Cc2c1[nH]c1ccccc21 [Example 1, (R)-1,1-Dibutyl-3-(4-pyridin-4-yl-1H-imidazol-2-yl)-2,3,4,9-tetrahydro-1H-β-carboline] | 200 to 205 °C |  |  |  |  |  |  |  | 
CCOCC1(COCC)N[C@@H](c2nc(-c3ccccc3)c[nH]2)Cc2c1[nH]c1ccccc21 [Example 10, (R)-1,1-bis-ethoxymethyl-3-(4-phenyl-1H-imidazol-2-yl)-2,3,4,9-tetrahydro-1H-β-carboline] |  | more than 400 fold | 2.04 nM | 5.01 nM | 0.3-3 mg/kg p.o. | increases dose dependently the duration of social contacts | no impairment of memory formation | significant increase of social recognition | 30-45%
